Details: in ethylbenzene

CCCCCCCCCCCCCCCCCCCCCC
Details	solubility (mole fraction)
268.67 K	0.00443
274.22 K	0.00854
277.47 K	0.0123
281.39 K	0.0202
284.43 K	0.0294
286.56 K	0.0381
289.51 K	0.0539
291.7 K	0.0702
293.53 K	0.0865
295.46 K	0.107
296.91 K	0.127
297.87 K	0.143
298.81 K	0.256
299.86 K	0.171
300.54 K	0.186
301.25 K	0.198
302.03 K	0.213
302.44 K	0.226

CCCCCCCCCCCCCCCCCCCCC
Details	solubility (mole fraction)
262.5 K	0.0047
268.03 K	0.01
275.53 K	0.026
278.56 K	0.0366
281.9 K	0.0549
284.95 K	0.0739
286.6 K	0.095
288.45 K	0.115
290 K	0.14
291.15 K	0.164
293.16 K	0.201
294.57 K	0.235
295.72 K	0.263

CCCCCCCCCCCCCCCCCCCCCCC
Details	solubility (mole fraction)
271.13 K	0.00366
280.09 K	0.0136
285.88 K	0.0295
288.62 K	0.0415
292.61 K	0.0698
295.02 K	0.094
297.34 K	0.124
298.77 K	0.147
300.52 K	0.173
300.9 K	0.184

CCCCCCCCCCCCCCCCCCCCCCCC
Details	solubility (mole fraction)
272.02 K	0.00269
279.76 K	0.00689
285.62 K	0.0142
289.1 K	0.0224
292.74 K	0.0346
296 K	0.0511
299.02 K	0.0732
301.52 K	0.0997
303.08 K	0.117
304.88 K	0.144
306.15 K	0.163

CCCCCCCCCCCCCCCCCCCC
Details	solubility (mole fraction)
266.52 K	0.00955
270.33 K	0.0149
272.73 K	0.0195
275.75 K	0.0265
278.21 K	0.0364
281.94 K	0.0536
282.8 K	0.0614
284.97 K	0.0791
286.15 K	0.0904
287.19 K	0.104
288.25 K	0.116
289.67 K	0.136
290.53 K	0.151
291.27 K	0.164
292.34 K	0.179
292.97 K	0.191
293.9 K	0.204
